The text below walks through data of ChEMBL document CHEMBL6120947, “Synthesis and Antiosteoporotic Characterization of Diselenyl Maleimides: Discovery of a Potent Agent for the Treatment of Osteoporosis by Targeting RANKL” (J Med Chem, 2024).

Activity calls are given as the source filed them. The calls are words filed in the database; no cut-off is given here.

The test system of data set [1] is RAW264.7. Briefly: Inhibition of osteoclastogenesis in RANKL-induced osteoclast differentiation in mouse RAW264.7 cells incubated for 4 days by TRAP staining based analysis. In kind it is functional, cell-based. To be noted: time 4.0 day.
The subject of data set [2] is RAW264.7. Briefly: Cytotoxicity against mouse RAW264.7 cells assessed as decrease in cell viability at 1 uM incubated for 48 hrs by MTT assay. It counts as toxicity, cell-based. The conditions noted are these: raw264.7, 48 h. In general terms: Tetrazolium assays rely on reduction of a dye to a coloured formazan, in cell work by metabolically active cells.

As for `CC[Se]C1=C([Se]CC)C(=O)N(c2ccccc2)C1=O`, the inhibition entry in the data set on RAW264.7 [1] was “inactive”.
Consider `O=C1C([Se]c2ccccc2Cl)=C([Se]c2ccccc2Cl)C(=O)N1Cc1ccccc1`, for which the inhibition result with RAW264.7 [1] was “inactive”.
Turning to `COc1ccc([Se]C2=C([Se]c3ccc(OC)cc3)C(=O)N(Cc3ccccc3)C2=O)cc1`, the inhibition entry in the data set with RAW264.7 [1] is “inactive”.
The same measure, in the same setting: the value for `N#Cc1ccc(CN2C(=O)C([Se]c3ccccc3)=C([Se]c3ccccc3)C2=O)cc1` was “inactive”; that for `O=C1C=C([Se]c2ccccc2)C(=O)N1Cc1ccccc1` was “inactive”; that for `O=C1C([Se]c2ccccc2)=C([Se]c2ccccc2)C(=O)N1c1ccccc1` was “inactive”.
For the compound `Cc1ccc([Se]C2=C([Se]c3ccc(C)cc3)C(=O)N(c3ccccc3)C2=O)cc1`, the Activity entry in the data set with RAW264.7 [2] was “Toxic”. Further, in the data set on RAW264.7 [1], the inhibition entry was “Active”.
For `O=C1C([Se]c2ccccc2Br)=C([Se]c2ccccc2Br)C(=O)N1c1ccccc1`, in that order: “Toxic” and “inactive”.
Take `Cc1ccccc1[Se]C1=C([Se]c2ccccc2C)C(=O)N(Cc2ccccc2)C1=O`: the inhibition entry in the data set with RAW264.7 [1] is “inactive”.
On the same count and under the same terms, the value for `Cc1ccccc1CN1C(=O)C([Se]c2ccccc2)=C([Se]c2ccccc2)C1=O` was “inactive”; that for `O=C1C([Se]c2ccccc2Cl)=C([Se]c2ccccc2Cl)C(=O)N1c1ccccc1` was “Active”.
On to `CCc1ccc(N2C(=O)C([Se]c3ccccc3)=C([Se]c3ccccc3)C2=O)cc1`, for which the Activity result in the data set on RAW264.7 [2] was “Toxic”. In addition, the inhibition result in the data set with RAW264.7 [1] was “Active”.
Turning to `O=C1C([Se]c2ccccc2)=C([Se]c2ccccc2)C(=O)N1c1ccc(Br)cc1`, the inhibition result in the data set on RAW264.7 [1] is “inactive”.
Turning to `O=C1C([Se]c2ccc(Br)cc2)=C([Se]c2ccc(Br)cc2)C(=O)N1c1ccccc1`, the Activity entry with RAW264.7 [2] is given as “Toxic”. For the same compound, in the data set on RAW264.7 [1], the inhibition result is “inactive”.
On to `O=C1C([Se]c2ccccc2)=C([Se]c2ccccc2)C(=O)N1Cc1cccc(Cl)c1`, for which the Activity result in the data set with RAW264.7 [2] was “Toxic”. For the same compound, in the data set with RAW264.7 [1], the inhibition entry is “inactive”.
Take `CC(=O)c1ccc(N2C(=O)C([Se]c3ccccc3)=C([Se]c3ccccc3)C2=O)cc1`: the inhibition result in the data set on RAW264.7 [1] is “Active”.
Same read-out and setting: the result for `CC(C)(C)N1C(=O)C([Se]c2ccccc2)=C([Se]c2ccccc2)C1=O` reads “inactive”; that for `COC(=O)CCN1C(=O)C([Se]c2ccccc2)=C([Se]c2ccccc2)C1=O`, “inactive”; that for `O=C1C([Se]c2ccccc2)=C([Se]c2ccccc2)C(=O)N1c1c(Cl)cc(Cl)cc1Cl`, “inactive”.
Same read-out and setting: the result for `N#Cc1ccc([Se]C2=C([Se]c3ccc(C#N)cc3)C(=O)N(Cc3ccccc3)C2=O)cc1` reads “inactive”.
Same read-out and setting: the value for `O=C1C([Se]c2ccccc2)=C([Se]c2ccccc2)C(=O)N1Cc1ccc(Cl)cc1` was “inactive”.
As to `COc1ncccc1[Se]C1=C([Se]c2cccnc2OC)C(=O)N(c2ccccc2)C1=O`, the Activity entry in the data set with RAW264.7 [2] is “Toxic”. The inhibition entry in the data set with RAW264.7 [1] is “inactive”.
In the case of `CCN1C(=O)C([Se]c2ccccc2)=C([Se]c2ccccc2)C1=O`, the inhibition entry with RAW264.7 [1] was “inactive”.
Still for that read-out and setting: the value for `O=C1C([Se]c2ccccc2)=C([Se]c2ccccc2)C(=O)N1Cc1ccccc1Cl` was “inactive”; that for `CN1C(=O)C([Se]c2ccccc2)=C([Se]c2ccccc2)C1=O` was “inactive”.
The same measure, in the same setting: the result for `O=C1C([Se]c2ccccc2)=C([Se]c2ccccc2)C(=O)N1Cc1cccc(Br)c1` reads “inactive”; that for `Cc1cccc([Se]C2=C([Se]c3cccc(C)c3)C(=O)N(Cc3ccccc3)C2=O)c1`, “inactive”.
As to `O=C1C([Se]c2ccccc2)=C([Se]c2ccccc2)C(=O)N1Cc1ccccc1Br`, the Activity entry with RAW264.7 [2] is “Toxic”. In addition, the inhibition result in the data set on RAW264.7 [1] is “inactive”.
For `N#Cc1cccc([Se]C2=C([Se]c3cccc(C#N)c3)C(=O)N(c3ccccc3)C2=O)c1` the same measures were “Toxic” and “inactive”.
For the compound `O=C1C([Se]c2ccccc2)=C([Se]c2ccccc2)C(=O)N1Cc1ccc(I)cc1`, the inhibition entry with RAW264.7 [1] was “inactive”.
With `O=C1C([Se]c2ccccc2)=C([Se]c2ccccc2)C(=O)N1Cc1ccc(F)cc1`, in the data set with RAW264.7 [1], the inhibition result was “inactive”.
As to `O=C1C([Se]c2ccc(Cl)cc2)=C([Se]c2ccc(Cl)cc2)C(=O)N1Cc1ccccc1`, the inhibition entry with RAW264.7 [1] is “inactive”.
Still for that read-out and setting: the value for `COc1ccccc1[Se]C1=C([Se]c2ccccc2OC)C(=O)N(Cc2ccccc2)C1=O` was “inactive”; that for `O=C1C([Se]c2cccc([N+](=O)[O-])c2)=C([Se]c2cccc([N+](=O)[O-])c2)C(=O)N1Cc1ccccc1` was “inactive”.
On the same count and under the same terms, the value for `O=C1C(Sc2ccccc2)=C(Sc2ccccc2)C(=O)N1Cc1ccccc1` was “inactive”.
On the same count and under the same terms, the result for `C[Se]C1=C([Se]C)C(=O)N(Cc2ccccc2)C1=O` reads “inactive”.
For `Cc1cccc(CN2C(=O)C([Se]c3ccccc3)=C([Se]c3ccccc3)C2=O)c1`, in the data set on RAW264.7 [2], the Activity entry is on record as “Toxic”. For the same compound, the inhibition result with RAW264.7 [1] is “inactive”.
In the case of `O=C1C([Se]c2cccc(F)c2)=C([Se]c2cccc(F)c2)C(=O)N1Cc1ccccc1`, the inhibition entry in the data set on RAW264.7 [1] is “inactive”.
Still for that read-out and setting: the value for `O=C1NC(=O)C([Se]c2ccccc2)=C1[Se]c1ccccc1` was “Active”.
Take `O=C1C([Se]c2ccccc2)=C([Se]c2ccccc2)C(=O)N1C1CCCCC1`: the inhibition result in the data set with RAW264.7 [1] was “inactive”.
Still for that read-out and setting: the result for `O=C1C([Se]c2cccc(Cl)c2)=C([Se]c2cccc(Cl)c2)C(=O)N1Cc1ccccc1` reads “inactive”.
Same read-out and setting: the value for `O=C1C=CC(=O)N1Cc1ccccc1` was “inactive”; that for `CCC[Se]C1=C([Se]CCC)C(=O)N(c2ccccc2)C1=O` was “inactive”.
Still for that read-out and setting: the result for `O=C1C([Se]c2ccccc2)=C([Se]c2ccccc2)C(=O)N1Cc1cccc(F)c1` reads “inactive”.
Consider `Cc1cccc([Se]C2=C([Se]c3cccc(C)c3)C(=O)N(c3ccccc3)C2=O)c1`, for which the inhibition entry in the data set with RAW264.7 [1] was “Active”.
Still for that read-out and setting: the result for `O=C1C([Se]c2cccc(Br)c2)=C([Se]c2cccc(Br)c2)C(=O)N1Cc1ccccc1` reads “inactive”; that for `COc1ccc(CN2C(=O)C([Se]c3ccccc3)=C([Se]c3ccccc3)C2=O)cc1`, “inactive”.
Regarding `Cc1ccc(CN2C(=O)C([Se]c3ccccc3)=C([Se]c3ccccc3)C2=O)cc1`, in the data set with RAW264.7 [2], the Activity result is listed as “Toxic”. The inhibition result in the data set on RAW264.7 [1] is “inactive”.
